Data on 15 molecules can be found in ChEMBL document CHEMBL1122600, “Receptor binding sites of hypoglycemic sulfonylureas and related [(acylamino)alkyl]benzoic acids” (1984).

The experiment has as its system Rattus norvegicus. The experiment can be described thus: Effect of the compound (50 mg/kg, po) on rat blood sugar level which was given an oral glucose load (1 g/kg) 1 hr after the administration of compound. The class given is functional.
Consider `COc1ccc(Cl)cc1C(=O)NCCc1ccc(C(C)O)cc1` (stereo not given), for which the “Change in rat blood sugar” value is on record as -11%.
Then `COc1ccc(Cl)cc1C(=O)NCCc1ccccc1`, with -7%; and `COc1ccc(Cl)cc1C(=O)NCCc1ccc(Cl)cc1`, with 0%.
Consider `COc1ccc(Cl)cc1C(=O)NCCc1ccc(O)cc1`, for which the “Change in rat blood sugar” value was determined as 2%.
Then `COc1ccc(Cl)cc1C(=O)NCCc1ccc(C(C)=O)cc1`, with -11%; and `COc1ccc(Cl)cc1C(=O)NCCc1ccc(N)cc1`, with 7%; and `COc1ccc(Cl)cc1C(=O)NCCCCCC(=O)O`, with 9%.
As for `COc1ccc(Cl)cc1C(=O)NCCc1ccc(OCC(=O)O)cc1`, the “Change in rat blood sugar” value was -9%.
Then `CCc1ccc(CCNC(=O)c2cc(Cl)ccc2OC)cc1`, with -4%; and `C=Cc1ccc(CCNC(=O)c2cc(Cl)ccc2OC)cc1`, with -6%.
Then `COc1ccc(Cl)cc1C(=O)NCCc1ccc([N+](=O)[O-])cc1`, with 2%; and `COc1ccc(Cl)cc1C(=O)NCCc1ccc(C(F)(F)F)cc1`, with -3%; and `COc1ccc(Cl)cc1C(=O)NCCc1ccc(C)cc1`, with -55%.
To `COc1ccc(Cl)cc1C(=O)NCCc1ccc(S(=O)(=O)NC(=O)NC2CCCCC2)cc1` [GLYBURIDE] belongs -44%; to `COc1ccc(Cl)cc1C(=O)NCCc1ccc(C(=O)O)cc1` [MEGLITINIDE], -63%.
